In data set [1] the test system is taz1 mutant yeast strain. The data set can be described thus: respiratory growth in liquid medium (Bioscreen). The format is cell-based. As to conditions: 70 h, liquid medium with 2% glycerol. The protocol:
These assays were performed in 96-well plates in the Bioscreen device.

Data set [2] relates to complex I of NDUFV1 mutant cells. Kind of data set: complex I enzyme activity of treated cells. The format is cell-based, human. The settings on record: 48 hours, low glucose medium.
Experimental: The complex I mutant cells, carrying the NDUFV1 compound heterozygous mutations responsible for complex I deficiency, were cultured in standard DMEM high glucose media (4.5 g/L) or in low glucose (0.5 g/L), supplemented with 10% fetal bovine serum, 1% glutamine and 50 µg/ml uridine at 37° C. in presence of 5% CO2 as described elsewhere (Leman et al., 2015). To optimize the effect of drug concentrations, cells were shifted to low glucose-medium 0.5 g/l (to force the cells to rely on OXPHOS rather than glycolysis) supplemented with various concentrations of 10 nM to 10 µM of Alverine or of the vehicle (DMSO) during 48 hours.
Complex I enzyme activity was measured at 37° C. on an UVmc2 spectrophotometer (SAFAS) as described (Leman et al., 2015; Desquiret-Dumas et al., 2012). […] The reaction was started by adding 0.15 mM NADH and the disappearing rate of DCPIP was measured at 600 nm for 2 minutes. The unspecific activity was determined in the presence of rotenone (5 µM). […]
Experiments were done at least in triplicates and error bars represent the standard deviation. Differences between treated cells vs untreated cells (DMSO) were evaluated using the Student’s t-test with significant p values <0.05.
For data set [3], the system named is shy1Δ yeast strain. The data set can be described thus: halo test on solid respiratory medium. Format: cell-based. As to conditions: 100 nmoles ALV on filter, YPG, 28° C., 4-5 days. The protocol:
shy1Δ yeast strain was constructed by replacing the open reading frame of SHY1 by that of HIS in the W303-1A strain (MATa ade2-1 ura3-1 his311, 15 trp1-1 leu2-3,112 can1-100) (Barrientos, A. et al., 2002).
(§1) 200 µL of the various yeast mutant strain grown in liquid YPD rich fermentable medium (1% Yeast extract, 0.5% Bacto Peptone, 2% Glucose) at 0.5 OD600 were spread on agar-based solid respiratory medium: either YPG (1% Yeast Extract, 0.5% Bacto Peptone, 2% glycerol) for fmc1, shy1 and NARP mutants or YPE (1% Yeast extract, 0.5% Bacto Peptone, 2% ethanol) for taz1 and sym1 mutants. […] The plates were then incubated at 28° C. for shy1 mutant or 36° C. for fmc1, tazl, sym1 and NARP mutants for 4-5 days and then scanned. DMSO, the compound vehicle is used as a negative control.

For data set [4], the system named is C. elegans nuo-1^A352V (NDUFV1) mutant. Kind of data set: adult progeny count of mutant worms. The format is in vivo, Caenorhabditis elegans. The settings on record: 1 µM ALV in the medium, p=0.02. The protocol: (§2) The C. elegans nematodes used in Examples 6 to 7 are the wild type BRISTOL N2 line from the Caenorhabditis Genetics Center (CGC) consortium. The mutant line LB25, carrying the nuo-1^A352V mutation (Δnuo-1, ex:nuo-1 (A352V)), mimicking the pathogenic mutation NDUFV1^A341V in human, was constructed by B. Lemire (Canada; Grad and Lemire, 2004).
2-3 days after hatching, adults from the progeny (F1-adults) were counted.
The progeny of more than 30 FO-adults was recorded by experiment in three independent experiments and error bars represent the standard deviation. Differences between treated cells vs untreated cells were evaluated using the Student’s t-test with significant p values <0.05.

For data set [5], the system named is wild-type worms (N2) subjected to NDUFS8 RNAi. The data set can be described thus: progeny of wild-type worms under RNAi. Format: in vivo, Caenorhabditis elegans. As to conditions: ALV 1 µM.
From the text: as §2
(§3) Decreased expression of NDUFV1 or NDUFS8 in wild-type worms (N2) was achieved by RNAi with the feeding method (Kamath RS and Ahringer J., 2003). […] Individual L4 animals were then transferred to separate wells (same medium and RNAi conditions) in microplates and monitored within the 3 to 7 next days.
(§4) RNAi of NDUFV1 (CO9H10.3) and RNAi of NDUFS8 (T20H4.5) lead to few FO-adults able to give a larval progeny. The number of FO-adults able to give a larval progeny was thus monitored. The progeny of more than 30 FO-adults was recorded in three independent experiments (t-test, p=0.02). The efficiency of RNAi was determined by real-time qRT-PCR (20% remaining mRNA of NDUFV1 or NDUFS8 in the FO-adults under the RNAi conditions).

The subject of data set [6] is wild-type worms (N2) subjected to NDUFV1 RNAi. The data set can be described thus: progeny of wild-type worms under RNAi. Format: in vivo, Caenorhabditis elegans. As to conditions: ALV 1 µM.
From the text: as §2, §3, §4

Data set [7] concerns taz1Δ yeast strain. The data set can be described thus: halo test on solid respiratory medium. The format is cell-based. The settings on record: 100 nmoles ALV on filter, YPE, 36° C., 4-5 days. Here is the method:
taz1Δ yeast strain was constructed by replacing the open reading frame of TAZ1 by that of TRP1 in the W303-1A strain (MATa ade2-1 ura3-1 his311, 15 trp1-1 leu2-3,112 can1-100) (de Taffin de Tilques, M. et al., 2018).
as §1

Data set [8] has as its system fmc1 yeast mutant. Kind of data set: halo test on solid respiratory medium. Format: cell-based. The settings on record: 100 nmoles ALV on filter, YPG, 36° C., 4-5 days. Here is the method:
(§5) sym1Δ yeast strain was constructed by replacing the open reading frame of SYM1 by that of kanMX6 in the W303-1A strain (MATa ade2-1 ura3-1 his311, 15 trpl-1 leu2-3,112 can1-100). fmc1 MC6 MATa ade2-1 his3-11,15 trp1-1 leu2-3,112 ura3-1 fmcl::HIS3 [Δi ER OR] (Schwimmer, C. et al., 2005).
as §1

The test system of data set [9] is sym1Δ yeast strain. The data set can be described thus: halo test on solid respiratory medium. As to conditions: 100 nmoles ALV on filter, YPE, 36° C., 4-5 days. The format is cell-based. The protocol: as §5, §1
For data set [10], the system named is NARP MR14 (atp6-L183R) yeast mutant. Kind of data set: halo test on solid respiratory medium. The format is cell-based. As to conditions: 100 nmoles ALV on filter, YPG, 36° C., 4-5 days. The protocol: as §1
For data set [11], the system named is nuo-51^A357V (NDUFV1) mutant strain. Kind of data set: O2 consumption rate of mycelium (Oxytherm). Format: cell-based, Podospora anserina. The settings on record: 1 µM ALV, 31.5° C., vs vehicle. Here is the method: For oxygen consumption, 40 mg samples of mycelium grown at 31.5° C. are introduced in an Oxytherm apparatus (Hansatech electrode). After a 2 min registration, samples are recovered, and protein content estimated with a Bradford protein assay (Biorad). Respirations are registered as nmole of oxygen consumed/min/µg protein and then expressed relative to the wild type. At least 3 samples for each strain were examined per experiment. The experiment was repeated at least 5 times.
Experiments were done at least five times and error bars represent the standard deviation. Differences between treated vs untreated cultures (VEH) were evaluated using the Pearson’s chi-square test, with significant p values < 0.05.

The record followed here is patent US20230310348A1, “USE OF ALVERINE OR ITS DERIVATIVES FOR THE TREATMENT OF MITOCHONDRIAL DISEASES OR DYSFUNCTION ASSOCIATED WITH MITOCHONDRIAL COMPLEX I DEFICIENCIES” (ASSOCIATION FRANCAISE CONTRE LES MYOPATHIES, priority 2020, published 2023).

For `CCN(CCCc1ccccc1)CCCc1ccccc1.O=C(O)CC(O)(CC(=O)O)C(=O)O` [ALV, Alverine citrate], the “concentration from which toxicity has been found” value in [1] is listed as not below 100 µM. Besides, the “respiratory growth (cell density)” value in data set [1] (ALV from 100 pM to 10 µM) is given as “increased respiratory growth”. Besides, the “complex I enzyme activity” value in data set [2] (100 nM ALV) and in data set [2] (300 nM ALV) was “beneficial effect” throughout. The “growth around filter (halo test)” value in data set [3], in data set [7], in [8], in data set [9] and in data set [10] was “halo of enhanced growth” in each case. Further, the “adult progeny (number of F1-adults obtained by F0-adult)” value in data set [4] is “significantly increased”. Further, the “progeny (F0-adults able to give a larval progeny)” value in data set [5] and in data set [6] was “increase their progeny” each time. Besides, the “respiration rate (O2 consumption)” value in [11] is recorded as “significantly increased”.
